# Assay results published in the supplement of paper PMC10307832.
# Legend:
# Assay in all cases: relative viability (nuclei count vs DMSO), 5 days (fraction); higher = more cells survive
# Idelalisib + Phenformin = compound: CC[C@H](Nc1ncnc2[nH]cnc12)c1nc2cccc(F)c2c(=O)n1-c1ccccc1 [Idelalisib] + N=C(N)NC(=N)NCCc1ccccc1 [Phenformin] (partner 250 µM)
# Procedure, shortened: (§1)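 Lung cancer cell lines were seeded in 1536-well plates and dosed by pin tool the next day, with either a single drug or a fixed anchor-drug dose combined with five library-drug doses (not always all listed) spaced in √10 steps. Five days later, one step fixed the cells and stained their nuclei (final 0.05% Triton X-100, 1% formaldehyde, 1 ug/ml Hoechst), and nuclei were counted on 4× images. Relative viability is the nuclei count in treated wells divided by the count in vehicle wells, and each value is the median of duplicate plates.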
# Pemetrexed + Dasatinib = compound: Nc1nc2[nH]cc(CCc3ccc(C(=O)N[C@@H](CCC(=O)O)C(=O)O)cc3)c2c(=O)[nH]1 [Pemetrexed] + Cc1nc(Nc2ncc(C(=O)Nc3c(C)cccc3Cl)s2)cc(N2CCN(CCO)CC2)n1 [Dasatinib] (partner 0.075 µM)
# Procedure, shortened: as §1
# Idelalisib + Foretinib = compound: CC[C@H](Nc1ncnc2[nH]cnc12)c1nc2cccc(F)c2c(=O)n1-c1ccccc1 [Idelalisib] + COc1cc2c(Oc3ccc(NC(=O)C4(C(=O)Nc5ccc(F)cc5)CC4)cc3F)ccnc2cc1OCCCN1CCOCC1 [Foretinib] (partner 0.25 µM)
# Procedure, shortened: as §1
# Idelalisib = compound: CC[C@H](Nc1ncnc2[nH]cnc12)c1nc2cccc(F)c2c(=O)n1-c1ccccc1 [Idelalisib]
# Procedure, shortened: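 Vehicle-anchored 1536-well plates of lung cancer cell lines, held overnight at 37 °C, were pinned with five library-drug doses (not always all listed) spaced by √10. No medium change followed over the next 5 days, after which the cells were fixed, permeabilised and Hoechst-stained together and imaged at 4×. Nuclei were counted with MetaXpress, and viability is treated-well nuclei over vehicle-well nuclei, taken as a median across plates. Plates passed with control CV below 25% and at least one doubling.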
Cell Line,relative viability (Idelalisib + Phenformin; first compound 0.04 µM),relative viability (Idelalisib + Phenformin; first compound 0.1265 µM),relative viability (Idelalisib + Phenformin; first compound 0.4 µM),relative viability (Idelalisib + Phenformin; first compound 1.265 µM),relative viability (Idelalisib + Phenformin; first compound 4 µM),relative viability (Pemetrexed + Dasatinib; first compound 0.002 µM),relative viability (Pemetrexed + Dasatinib; first compound 0.006325 µM),relative viability (Pemetrexed + Dasatinib; first compound 0.02 µM),relative viability (Pemetrexed + Dasatinib; first compound 0.06325 µM),relative viability (Pemetrexed + Dasatinib; first compound 0.2 µM),relative viability (Idelalisib + Foretinib; first compound 0.04 µM),relative viability (Idelalisib + Foretinib; first compound 0.1265 µM),relative viability (Idelalisib + Foretinib; first compound 0.4 µM),relative viability (Idelalisib + Foretinib; first compound 1.265 µM),relative viability (Idelalisib + Foretinib; first compound 4 µM),relative viability (Idelalisib; 0.04 µM),relative viability (Idelalisib; 0.1265 µM),relative viability (Idelalisib; 0.4 µM),relative viability (Idelalisib; 1.265 µM),relative viability (Idelalisib; 4 µM)
NCI-H1755,0.633,0.601,0.558,0.675,0.531,0.397,0.409,0.448,0.436,0.379,0.951,0.915,0.889,0.843,0.9,1.01,1.01,0.955,0.926,0.949
NCI-H1793,0.388,0.369,0.288,0.335,0.224,0.312,0.294,0.46,0.375,0.412,0.764,0.54,0.381,0.685,0.409,1.01,1.02,0.569,0.846,0.545
NCI-H1915,0.387,0.36,0.364,0.381,0.372,0.236,0.313,0.313,0.306,0.319,1.15,1.1,1.09,1.19,1.09,1.08,0.999,0.948,1.11,0.984
NCI-H1944,0.237,0.204,0.158,0.187,0.175,,0.201,0.195,0.212,0.217,1,0.877,0.752,0.804,0.759,1.21,0.943,0.785,1.01,0.803
NCI-H1975,0.426,0.418,0.369,0.408,0.357,0.249,0.333,0.429,0.342,0.275,0.934,0.931,0.885,0.86,0.867,1.02,1.04,0.864,0.921,0.737
NCI-H1993,0.57,0.484,0.554,0.59,0.486,0.325,0.606,0.546,0.496,0.358,0.967,0.843,0.649,0.837,0.737,1.1,1.12,0.804,0.917,0.7
NCI-H2009,0.496,0.483,0.474,0.536,0.491,0.299,0.289,0.377,0.265,0.307,1.17,1.21,1.16,1.23,1.14,0.998,1.02,0.974,1.06,1.04
